Results as given in patent publication US20230101768A1, “METHOD TO TREAT MANGANESE TOXICITY AND MANGANESE-INDUCED PA[…] HUMANS” (priority 2021, published 2023).
Read-outs that look alike come from different tables or passages of the source.

Experiments:
VEGF = format: cell-based; settings: primary human hepatocytes, 250 μM manganese for 4 h
Experimental: (§1) (A) and (B): qRT-PCR assays in cells treated with or without 10 μM LW6 for 1 h followed by 0 or 250 μM manganese for 4 h (A) or with or without 20 μM roxadustat or 80 μM vadadustat for 16 h (B). […] For (B), expression in the absence of drug treatment was normalized to 1. N=3. Mean±SE. *P<0.05 by t-test (A) or one-way ANOVA and Dunnett's post hoc test for the comparison between no drug and other conditions (B).
(§2) Cell culture. HepG2 cells were grown in Eagle's modified essential medium (MEM; Corning) with 10% fetal bovine serum (Atlanta Biologicals), 100 IU/ml penicillin (Corning), and 100 μg/ml streptomycin (Corning). 293T cells were maintained in Dulbecco's modified essential medium/F12 (Thermo) supplemented with 10% fetal bovine serum, penicillin (100 IU/ml), and streptomycin (100 μg/ml). Human primary hepatocytes were purchased from XenoTech (catalog #HPCH10+) and cultured according to protocols provided by the supplier.
(§3) manganese and drug treatments in cell culture. Cells were treated with indicated levels of manganese as manganeseCl2.4H2O (Fisher). Vehicle for manganese treatment was water. Prolyl hydroxylase inhibitors roxadustat (Caymen), vadadustat, and molidustat (both APE-Bio); the HIFα inhibitor LW6 (Selleckchem); the proteasomal inhibitor MG132 (Sigma); and the transcription inhibitor actinomycin D (Sigma) were dissolved in DMSO. […] Vehicle treatment for all drugs was DMSO.
(§4) Quantitative RT-PCR assays. RNA extraction from HepG2 cells and mouse tissue, reverse transcription to cDNA, and qRT-PCR analyses were performed as described by us previously (47, 50). For analyses of mouse brain samples, a part of the midbrain, including the basal ganglia, was used. Transcript levels were quantified using the ΔΔCT method with 18S (in mice) or TBP (in HepG2 cells) as the internal control, also as described by us previously (47, 50).

SLC30A10 [1] = format: cell-based; settings: primary human hepatocytes, 250 μM manganese for 4 h
Experimental: as §1, §2, §3, §4

SLC30A10 [2] = format: in vivo, mice; settings: oral manganese ~15 mg/kg daily from birth until 8 weeks
Experimental: A well-characterized drinking water-based manganese exposure regimen was used to model human environmental manganese exposure by providing mice with ˜50 mg manganeseCl2.4H2O/kg body weight daily (˜15 mg absolute manganese/kg per day) from birth until 8 weeks of age. This, and related similar, dosing regimens: 1) approximate the increase in manganese exposure in humans consuming well water contaminated with 1.5 mg manganese/L, which is the median well water concentration associated with neurological deficits in children; 2) increase brain manganese levels by ˜2-3 fold, similar to human patients; 3) produce measurable neurobehavioral deficits without overt toxicity; and 4) model exposure to manganese in developmentally-sensitive early-life and adolescent periods (11). Pre-weaning manganese was delivered by pipette directly into the mouth, and post-weaning manganese was delivered in drinking water using procedures described in detail in ref. (11). In brief, pre-weaning dosing was adjusted to each animal's body weight. For this, a stock solution of 69.2 mg absolute manganese/ml prepared in milliQ water was diluted in milliQ water containing 2.5% (wt/vol) of the natural sweetener Stevia (to facilitate intake by pups), and the required manganese amount (0.2 μl manganese stock/g body weight) was delivered in a dose of ˜5-10 μl/animal. For post-weaning exposure, a 27.7 mg absolute manganese/ml stock solution was prepared in water and diluted to 0.069 mg absolute manganese/ml in drinking water, which provided mice with ˜15 mg absolute manganese/kg per day based on a daily water intake of ˜2-5 ml/mouse depending on age.
To assay for the protective effect of roxadustat, animals were exposed to roxadustat or vehicle with or without manganese in drinking water from ˜4 weeks of age. Treatment lasted for 4 weeks from initiation. Roxadustat (Selleckchem) was prepared as a 50 mg/ml stock solution in DMSO, then diluted to 1 mg/ml in sterile phosphate buffered saline (PBS), and delivered by daily i.p. injection at 10 mg/kg. Vehicle was 2% DMSO in PBS. For this experiment, drinking water manganese levels were adjusted to 0.138 mg absolute manganese/ml so that animals received ˜30 mg absolute manganese/kg daily. A higher level of manganese was used because exposure was initiated after weaning, which was necessary because daily i.p. injections for roxadustat delivery were not possible in the pre-weaning period.
Animals were euthanized using carbon dioxide and tissue dissected for qRT-PCR or ICPMS analyses as described by us previously (50).
as §4

[3] = tested on: prolyl hydroxylated HIF1α; format: cell-based, human; settings: HepG2 cells, 10 μM MG132 for 1 h then 250 μM manganese for 4 h
Experimental: as §3
(§5) Immunoblots. HepG2 cells were cultured in 35 mm dishes, treated with or without manganese, MG132 and/or prolyl hydroxylase inhibitors, and scrapped using 200 μl of RIPA buffer (50 mM Tris-HCl, pH7.4; 150 mM NaCl; 1Mm EDTA; 1% Triton; 0.25% sodium deoxycholate; protease inhibitors cocktail (Thermo A32953)). Whole-cell lysates were prepared by adding loading buffer (50 mM Tris-HCl, pH 7.4; 2% sodium dodecyl sulfate; 10% glycerol, 0.1 M dithiothreitol; 0.01% (weight/volume) bromophenol blue) and boiling the samples for 5 min. Equal volumes of samples were loaded per lane. Further processing was as described by us previously (47). Images were quantified using ImageQuant TL software (GE).
(§6) Antibodies and chemicals. The inventors used the following commercial primary antibodies in this study: rabbit polyclonal anti-HIF1α (Abcam, Ab2185), rabbit polyclonal anti-HIF2α (Novus, NB100-122), rabbit monoclonal anti-HIF1α proline 564 (Cell signaling, 3434S), and mouse monoclonal anti-tubulin (Sigma, T5168). […] Sources of chemicals not provided elsewhere were Thermo Fisher Scientific or Sigma-Aldrich.

HIF1α = format: cell-based, human; settings: HepG2 cells, 250 μM manganese; evident at 4 hours, baseline by 24 h
Experimental: as §3, §5, §6

HIF2α = format: cell-based, human; settings: HepG2 cells, 250 μM manganese; evident at 4 hours, baseline by 24 h
Experimental: as §3, §5, §6

## O.O.O.O.[Cl][Mn][Cl] [manganese, manganeseCl2.4H2O]
VEGF
  VEGF expression after manganese: increased
SLC30A10 [1]
  SLC30A10 expression after manganese: increased
SLC30A10 [2]; 129S4/SvJaeJ mice
  SLC30A10 levels in intestines: not
  SLC30A10 levels in liver: increased
SLC30A10 [2]; C57BL/6J mice
  SLC30A10 levels in intestines: increase
  SLC30A10 levels in liver: not
SLC30A10 [2]; either strain (129S4/SvJaeJ, C57BL/6J)
  Expression of SLC30A10 in the brain: did not impact
[3]
  Signals for prolyl hydroxylated HIF1α in manganese-treated condition: substantially lower
HIF1α
  HIF1α protein levels after manganese: increased
HIF2α
  HIF2α protein levels after manganese: increased
